# Data reported in patent US5500429A, “Calcium uptake inhibitors” (Merrell Pharmaceuticals Inc., priority 1993, dated 1996).
# Tests used:
# [1] = tested on: Lewis rats, adjuvant-induced arthritis; test: Lewis Rat Adjuvant-Induced Arthritis Model; type: in vivo
# Method: Female inbred Lewis rats (Charles River) weighing 150-200 grams were injected intradermally in the tail with either 0.1 mL of Mycobacterium butyricum (Difco) in mineral oil (5 mg.mL) or with mineral oil alone. Starting on the day of innoculation and for 32 days, paw edema was determined for right and left hind limbs using the mercury displacemnt method. From day 1 some animals were treated with 30 mg/Kg p.o. MDL 29,355 once daily.
# [2] = tested on: Rat PMNL (intracellular calcium); test: Measurement of Intracellular Calcium (Fura-2) in fMLP-stimulated rat PMNL; type: cell-based; settings: for suppression of the second wave of intracellular calcium changes: fMLP-stimulated PMNL, preincubation with compound, FIG. 1
# Method: Rat PMNL were obtained from exudates resulting from peritoneal injection of 6 mL of 8% sodium caseinate. Eighteen hours after injection rats were killed by carbon dioxide inhalation and the peritoneal cavity lavaged with Hank's balanced salt solution (HBSS). After concentration of the PMNL by centrifugation, contaminating erythrocytes were removed by hypotonic lysis. The PMNL were then washed twice by centrifugation (400×g for 10 minutes) and resuspended in HBSS. Cell viability was greater than 90% by Trypan Blue exclusion and greater than 90% of the cells were PMNL by Wright-Giemsa stain.
# Intracellular calcium levels were obtained using Fura-2 as fluorescent indicator (Grynkiewicz et al., 1985). Fura-2 was loaded into PMNL as the acetoxymethyl ester (Fura-2/AM) using the method of Korchak et al., (1988). Specifically, 1×10^8 PMNL/mL were incubated in HBSS with 10 μM Fura-2/AM for 10 minutes at 37° C. The cells suspension was then diluted ten fold with HBSS and further incubated for another 20 minutes. The cells were then centrifuged (400×g for 8 minutes at 25° C.) and the PMNL (1×10^7 cells/mL) resuspended in HBSS containing 1% bovine serum albumin. Cells were stored at room temperature and used within 3 hours.
# Intracellular calcium level determinations were made using a dual wavelength spectrofluorometer (Photon Technology International, New Brunswick, N.J.). Two mL of PMNL suspension (1×10^7 cells/mL) were stirred magnetically at 37° C. Cells were preincubated with the compounds for 15 minutes at 37° C. prior to activation. Where compounds were dissolved in DMSO and added directly, the DMSO never exceeded 0.3% in the final cell suspension. Total change in volume with addition of compounds or vehicle and stimuli never exceeded 3%. Intracellular calcium concentrations were calibrated by setting a maximum calcium level in the cells with the addition of 7 uM ionomycin to PMNL in HBSS containing 1% BSA. This was followed by treatment with 20 mM EGTA for 1 hour to obtain a minimum calcium level. […]
# [3] = tested on: Sprague-Dawley rats, Arthus reaction; test: Arthus Reaction in Rat Skin; type: in vivo
# Method: Anesthetized male Sprague-Dawley rats (Charles River) weighing 200-250 grams received 100 mg/Kg i.v. sterile bovine serum albumin (BSA) solution (5 mg/mL). immediately after injection, the animals received an intradermal injection of 100 ug of rabbit anit-BSA in saline. This produces an immune complex mediated inflammation (Arthus reaction) where immune complexes fix complement releasing factors that attract neutrophils. The neutrophils then are activated causing local tissue damage as manifested in a hemorrhagic spot. The extent of the reaction is reflected in the size of the spot as measured by image analysis techniques.
# [4] = tested on: Sprague Dawley rats, carrageenin-induced paw edema; test: Carrageenin Induced Rat Paw Edema; type: in vivo; settings: i.p, one hour prior to carrageenin; read 3 hours after
# Method: Charles River male Sprague Dawley rats weighing 90 to 100 grams were used. Inflammation of the left hind paw was induced by a 1% carrageenin solution (0.05 cc), injected into the plantar surface of the paw. The contralateral paw was injected with an equal volume of saline. Drugs were administered orally or i.p. (1 cc/100 grams) one hour prior to paw injection. Three hours following the carrageenin injection the difference in volume of the control and inflamed paw was measured. Each paw was immersed in a well of mercury and the volume of mercury displaced was recorded. Paws were uniformly dipped into the mercury up to the beginning of the hairline. A venous pressure transducer, coupled to an oscillographic recorder, was employed to measure the small volumes of mercury displaced. Each group measurement consists of the average of four rats, each with three separate measurements.
SMILES,"paw swelling reduction, day 20 ([1]; 30 mg/Kg p.o. once daily from day 1, day 20)","paw swelling inhibited, day 32 ([1]; 30 mg/Kg p.o. once daily from day 1, day 32, not significantly different from untreated controls)","animals never displaying adjuvant arthritis ([1]; 30 mg/Kg p.o. once daily, all control animals displayed arthritis)",suppression of the second wave of intracellular calcium changes [2],"hemorrhagic spot size reduction ([3]; i.p. 100 mg/Kg, 30 minutes before Arthus reaction)",hemorrhagic spot size reduction ([3]; intradermal 100ug with the antibody),% Inhibition of carrageenin-induced paw edema [4],"relative inhibition of the second phase (calcium uptake) ([2]; MDL 101,240 vs MDL 29,355, fMLP stimulus)"
"O=C(C=Cc1ccncc1)c1ccccc1 [MDL 29,355, 1-phenyl-3-(4-pyridinyl)-2-propene-1-one]",36.4% ±16.6%,30.9%±22.4%,one of the 3 treated animals never displayed adjuvant arthritis,selective concentration-dependent suppression of the second wave of intracellular calcium changes,55.0%±16.8%,41.7% ±12.5%,51.4 ± 8.5%,
"CN(C)c1ccc(C(=O)C=Cc2ccncc2)cc1 [MDL 101,240, 1-(4-dimethylaminophenyl)-3-(4-pyridinyl)-2-propene-1-one]",,,,selective concentration-dependent suppression of the second wave of intracellular calcium changes,,,,"stronger inhibition for MDL 101,240 than for MDL 29,355"
